According to patent publication US20160075991A1, “Process for Preparing Starter Cultures of Lactic Acid Bacteria” (INSTITUT NATIONAL DE LA RECHERCHE, priority 1998, published 2016):

Legend:
[1] = test system: Lactococcus lactis subsp. cremoris strain MG1363; assay: Survival of the lactic acid bacteria during storage at 4° C. (Example 3); format: cell-based; conditions: for Number of cells per ml: porphyrin compound and aeration, 1% glucose M17, storage at 4° C.
Method: (§1) A laboratory medium, i.e. M17 supplemented with 1% of glucose, is inoculated with Lactococcus lactis subsp. cremoris strain MG1363 in the form of a 1/1000 dilution of a saturated culture. The cultures are then divided into two equal parts, and hemin is added to one of these two cultures to give a final concentration of 10 μg/ml. […] Aliquots of the two cultures are removed regularly during the exponential growth phase in order to monitor viability, rate of growth and pH. After 24 h of growth, the cultures are placed (stored) in a 30° C. incubator without shaking, and aliquots are removed every 24 h in order to monitor the viability of the cells. The Lactococcus lactis subsp. cremoris strain MG1363 was cultured as in the experiment described in Example 2, but the storage, which is carried out 24 h after inoculation, is at 4° C. instead of at 30° C.

IL801 = assay: Culture with hemin and agitation, different strains (Example 4); format: cell-based, L. lactis; conditions: strain IL801, hemin 10 μg/ml and agitation, M17 1% glucose, 24 h
[2] = test system: Lactococcus lactis subsp. cremoris strain MG1363; assay: Culturing in the presence of hemin with aeration (Example 1.1); format: cell-based; conditions: for pH: final pH of medium; for pH / OD600 nm / Viable bacterial count / Concentration of lactic acid: hemin 10 μg/ml, aeration, 24 h
Method: A laboratory medium (M17 supplemented with glucose in amounts, as indicated in the Table I, lactose being also usable) is inoculated with the Lactococcus lactic subsp. cremoris strain MG1363 in the form of a 1/100 or 1/1000 dilution of a saturated culture (prepared at 30° C. with no shaking). The inoculated medium contained or not hemin at a final concentration of 10 μg/ml (a 0.5 mg/ml stock solution is prepared by dissolving 100 mg of hemin in 2 ml of 5N NaOH, to which 198 ml of water is then added; the solution is autoclaved at 120° C. for 20 minutes). For bacteria grown in medium containing hemin, cultures were maintained at 30° C. with shaking (250 rotations per minute) in order to ensure oxygenation. Control cultures, without addition of hemin and without shaking, were grown at 30° C. in parallel. After 24 h of growth, aliquots are removed to measure the optical density at 600 nm (OD600 nm), the number of viable bacteria, the final pH and the concentration of lactic acid in the medium.

[3] = test system: Lactococcus lactis subsp. cremoris strain MG1363; assay: Survival of the lactic acid bacteria during storage at 30° C. (Example 2); format: cell-based; conditions: for Number of viable cells: hemin 10 μg/ml and aeration, 1% glucose M17
Method: as §1, with “cells.” for “cells. The Lactococcus lactis subsp. cremoris strain MG1363 was cultured as in the experiment described in Example 2, but the storage, which is carried out 24 h after inoculation, is at 4° C. instead of at 30° C.”

Z106 = assay: Culture with hemin and agitation, different strains (Example 4); format: cell-based, L. lactis; conditions: strain Z106, hemin 10 μg/ml and agitation, M17 1% glucose, 24 h
Method: Bacteria [MG1363 and 7 strains (IL1403, IL582, IL801, IL896, Z105, Z106, Z191) representative of L. lactis subgroups [TAILLEZ et al., System. Appl. Microbiol., 21, 530-538, (1998)] are cultured in M17 medium (1% glucose) inoculated (1/1000 dilution) with a saturated starter culture previously grown at 30° C. for 24 h. Hemin at a final concentration of 10 μg/ml is added to the inoculated medium before aerating the cultures by shaking (minimum 220 rpm). Control cultures are grown in parallel with no hemin in the medium, and no shaking. After 24 h., aliquots are taken and OD600 and final pH are measured.

[4] = glucose 5 g/l, dilution factor 100
[5] = glucose 5 g/l, dilution factor 1000
[6] = glucose 6 g/l, dilution factor 100
[7] = glucose 6 g/l, dilution factor 1000
[8] = glucose 7 g/l, dilution factor 100
[9] = glucose 7 g/l, dilution factor 1000
[10] = glucose 8 g/l, dilution factor 100
[11] = glucose 8 g/l, dilution factor 1000
[12] = glucose 9 g/l, dilution factor 100
[13] = glucose 9 g/l, dilution factor 1000
[14] = glucose 10 g/l, dilution factor 100
[15] = glucose 10 g/l, dilution factor 1000

For `C=CC1=C(C)c2cc3[n-]c(cc4nc(cc5[n-]c(cc1n2)c(C)c5C=C)C(C)=C4CCC(=O)O)c(CCC(=O)O)c3C.[Cl-].[Fe+3]` [hemin], the survival rate ([1]; after 2 months at 4° C., cultured with porphyrin compound under aeration) was ~5%, the “Number of cells per ml” value ([1]; 0 days after culture) was 4.3 × 10^9 cells per ml and the “Number of cells per ml” value ([1]; 1 day after culture) was 4.2 × 10^9 cells per ml. For the same compound, the “Number of cells per ml” value ([1]; 2 days after culture) was 3.8 × 10^9 cells per ml, the “Number of cells per ml” value ([1]; 3 days after culture) was 3.8 × 10^9 cells per ml and the “Number of cells per ml” value ([1]; 7 days after culture) was 4.2 × 10^9 cells per ml. For the same compound, the “Number of cells per ml” value ([1]; 8 days after culture) was 2.8 × 10^9 cells per ml, the “Number of cells per ml” value ([1]; 9 days after culture) was 2.2 × 10^9 cells per ml and the “Number of cells per ml” value ([1]; 10 days after culture) was 9.6 × 10^8 cells per ml. The “Number of cells per ml” value ([1]; 13 days after culture) was 5.0 × 10^8 cells per ml, the “Number of cells per ml” value ([1]; 15 days after culture) was 3.2 × 10^8 cells per ml and the “Number of cells per ml” value ([1]; 22 days after culture) was 3.0 × 10^8 cells per ml. The “Number of cells per ml” value ([1]; 28 days after culture) was 3.0 × 10^8 cells per ml, the “Number of cells per ml” value ([1]; 36 days after culture) was 2.9 × 10^8 cells per ml and the “Number of cells per ml” value ([1]; 43 days after culture) was 2.2 × 10^8 cells per ml. For the same compound, the “Number of cells per ml” value ([1]; 50 days after culture) was 1.8 × 10^8 cells per ml, the “Number of cells per ml” value ([1]; 57 days after culture) was 2.0 × 10^8 cells per ml and the pH (IL801; final pH) was 5.44. The OD500 nm (IL801) was 4.3, the “production of lactic acid as share of the quantity of sugar added” value ([2]; cells cultured in the presence of hemin and oxygen) was “less than 10%” and the pH [2, 4] was 6.2. It also gave a pH [2, 5] of 6.19, a pH [2, 6] of 6.25 and a pH [2, 7] of 6.13. It also gave a pH [2, 8] of 6.09, a pH [2, 9] of 6.07 and a pH [2, 10] of 6.04. It also gave a pH [2, 11] of 6.03, a pH [2, 12] of 6.02 and a pH [2, 13] of 6.01. The pH [2, 14] was 6.01, the pH [2, 15] was 5.99 and the OD600 nm [2, 4] was 4.6. The Viable bacterial count [2, 4] was 5.7 ×10^9, the “Concentration of lactic acid” value [2, 5] was 0.12 g/L and the OD600 nm [2, 5] was 4.5. For the same compound, the Viable bacterial count [2, 5] was 5.7 ×10^9, the OD600 nm [2, 6] was 5.1 and the Viable bacterial count [2, 6] was 6 ×10^9. For the same compound, the “Concentration of lactic acid” value [2, 7] was 0.14 g/L, the OD600 nm [2, 7] was 5.5 and the Viable bacterial count [2, 7] was 7.6 ×10^9. For the same compound, the OD600 nm [2, 8] was 5.6, the Viable bacterial count [2, 8] was 9.1 ×10^9 and the “Concentration of lactic acid” value [2, 9] was 0.19 g/L. For the same compound, the OD600 nm [2, 9] was 5.7, the Viable bacterial count [2, 9] was 8.6 ×10^9 and the OD600 nm [2, 10] was 5.9. The Viable bacterial count [2, 10] was 8.9 ×10^9, the “Concentration of lactic acid” value [2, 11] was 0.35 g/L and the OD600 nm [2, 11] was 5.4. For the same compound, the Viable bacterial count [2, 11] was 9.3 ×10^9, the OD600 nm [2, 12] was 5.9 and the Viable bacterial count [2, 12] was 9.2 ×10^9. The “Concentration of lactic acid” value [2, 13] was 0.52 g/L, the OD600 nm [2, 13] was 5.8 and the Viable bacterial count [2, 13] was 9.4 ×10^9. For the same compound, the OD600 nm [2, 14] was 6.1, the Viable bacterial count [2, 14] was 10.1 ×10^9 and the “Concentration of lactic acid” value [2, 15] was 0.98 g/L. For the same compound, the OD600 nm [2, 15] was 6.2, the Viable bacterial count [2, 15] was 9.6 ×10^9 and the “pH of the culture (remains stable)” value ([2]; hemin and oxygen, whatever the concentration of glucose) was “approximately 6.1”. For the same compound, the “viability after one day of storage” value ([3]; 2 days after inoculation, storage at 30° C., hemin and oxygen) was “do not lose any viability”, the rate of survival ([3]; after 5 days of storage at 30° C., grown with aeration and hemin) was “approximately 10^−2” and the “Number of viable cells” value ([3]; 0 days after inoculation) was 1 × 10^6. The “Number of viable cells” value ([3]; 1 day after inoculation) was 1.76 × 10^10, the “Number of viable cells” value ([3]; 2 days after inoculation, stored at 30° C.) was 1.71 × 10^10 and the “Number of viable cells” value ([3]; 3 days after inoculation, stored at 30° C.) was 5.32 × 10^9. The “Number of viable cells” value ([3]; 5 days after inoculation, stored at 30° C.) was 4.3 × 10^8, the “Number of viable cells” value ([3]; 6 days after inoculation, stored at 30° C.) was 8.5 × 10^7 and the pH (Z106; final pH) was 5.74. It also gave an OD500 nm (Z106) of 4.5.
